Results reported in patent US12637424B2, “Pharmaceutical salt of an arylpyrrole derivative” (SENTINEL ONCOLOGY LIMITED, priority 2020, dated 2026).

Assays:
[1] = biological target: T1, panel of ninety-seven kinases (Homo sapiens, UniProt P06213); assay: DiscoverX KinomeScreen competition binding assay (kinase selectivity panel); conditions: INSR; screened at 3000 nM
T1 construct: purchased DiscoverX; host or cells: E. coli (BL21-derived, T7 phage display) or HEK-293
How it was run: (§1)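 Kinases on T7 phage (BL21-derived E. coli host) or DNA-tagged from HEK-293 cells compete between compound and a bead-immobilized biotinylated ligand. Captured kinase is eluted and quantified by qPCR. Compound is tested at 3000 nM (3 μM); binding is reported as % Ctrl, with DMSO as 100% and control compound as 0%.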

[2] = biological target: T2, panel of ninety-seven kinases (Homo sapiens, UniProt P09619); assay: as above; conditions: PDGFRB; screened at 3000 nM
T2 construct: purchased DiscoverX; host or cells: E. coli (BL21-derived, T7 phage display) or HEK-293
How it was run: as §1

[3] = biological target: T3, panel of ninety-seven kinases (Homo sapiens, UniProt P07333); assay: as above; conditions: CSF1R; screened at 3000 nM
T3 construct: purchased DiscoverX; host or cells: E. coli (BL21-derived, T7 phage display) or HEK-293
How it was run: as §1

[4] = biological target: T4, panel of ninety-seven kinases (Homo sapiens, UniProt Q15303); assay: as above; conditions: ERBB4; screened at 3000 nM
T4 construct: purchased DiscoverX; host or cells: E. coli (BL21-derived, T7 phage display) or HEK-293
How it was run: as §1

[5] = biological target: T5, panel of ninety-seven kinases (Homo sapiens, UniProt P48730); assay: as above; conditions: CSNK1D; screened at 3000 nM
T5 construct: purchased DiscoverX; host or cells: E. coli (BL21-derived, T7 phage display) or HEK-293
How it was run: as §1

[6] = biological target: T6, panel of ninety-seven kinases (Homo sapiens, UniProt P24941); assay: as above; conditions: CDK2; screened at 3000 nM
T6 construct: purchased DiscoverX; host or cells: E. coli (BL21-derived, T7 phage display) or HEK-293
How it was run: as §1

[7] = biological target: T7, panel of ninety-seven kinases (Homo sapiens, UniProt P27361); assay: as above; conditions: MAPK3; screened at 3000 nM
T7 construct: purchased DiscoverX; host or cells: E. coli (BL21-derived, T7 phage display) or HEK-293
How it was run: as §1

[8] = biological target: T8, panel of ninety-seven kinases (Homo sapiens, UniProt P78368); assay: as above; conditions: CSNK1G2; screened at 3000 nM
T8 construct: purchased DiscoverX; host or cells: E. coli (BL21-derived, T7 phage display) or HEK-293
How it was run: as §1

[9] = biological target: T9, panel of ninety-seven kinases (Homo sapiens, UniProt Q9BWU1); assay: as above; conditions: CDK19; screened at 3000 nM
T9 construct: purchased DiscoverX; host or cells: E. coli (BL21-derived, T7 phage display) or HEK-293
How it was run: as §1

[10] = biological target: T10, panel of ninety-seven kinases (Homo sapiens, UniProt Q8NI60); assay: as above; conditions: CABC1; screened at 3000 nM
T10 construct: purchased DiscoverX; host or cells: E. coli (BL21-derived, T7 phage display) or HEK-293
How it was run: as §1

[11] = biological target: T11, panel of ninety-seven kinases (Homo sapiens, UniProt O15530); assay: as above; conditions: PDPK1; screened at 3000 nM
T11 construct: purchased DiscoverX; host or cells: E. coli (BL21-derived, T7 phage display) or HEK-293
How it was run: as §1

[12] = biological target: T12, panel of ninety-seven kinases (Homo sapiens, UniProt P11309); assay: as above; conditions: PIM1; screened at 3000 nM
T12 construct: purchased DiscoverX; host or cells: E. coli (BL21-derived, T7 phage display) or HEK-293
How it was run: as §1

[13] = biological target: T13, panel of ninety-seven kinases (Homo sapiens, UniProt Q06187); assay: as above; conditions: BTK; screened at 3000 nM
T13 construct: purchased DiscoverX; host or cells: E. coli (BL21-derived, T7 phage display) or HEK-293
How it was run: as §1

[14] = biological target: T14, panel of ninety-seven kinases (Homo sapiens, UniProt P29597); assay: as above; conditions: TYK2; screened at 3000 nM
T14 construct: purchased DiscoverX; host or cells: E. coli (BL21-derived, T7 phage display) or HEK-293
How it was run: as §1

[15] = biological target: T15, panel of ninety-seven kinases (Homo sapiens, UniProt Q9UPE1); assay: as above; conditions: SRPK3; screened at 3000 nM
T15 construct: purchased DiscoverX; host or cells: E. coli (BL21-derived, T7 phage display) or HEK-293
How it was run: as §1

[16] = biological target: T16, panel of ninety-seven kinases (Homo sapiens, UniProt Q02156); assay: as above; conditions: PRKCE; screened at 3000 nM
T16 construct: purchased DiscoverX; host or cells: E. coli (BL21-derived, T7 phage display) or HEK-293
How it was run: as §1

[17] = biological target: T17, panel of ninety-seven kinases (Homo sapiens, UniProt P49841); assay: as above; conditions: GSK3B; screened at 3000 nM
T17 construct: purchased DiscoverX; host or cells: E. coli (BL21-derived, T7 phage display) or HEK-293
How it was run: as §1

[18] = biological target: T18, panel of ninety-seven kinases (Homo sapiens, UniProt P80192); assay: as above; conditions: MAP3K9; screened at 3000 nM
T18 construct: purchased DiscoverX; host or cells: E. coli (BL21-derived, T7 phage display) or HEK-293
How it was run: as §1

[19] = biological target: T19, panel of ninety-seven kinases (Homo sapiens, UniProt Q9BUB5); assay: as above; conditions: MKNK1; screened at 3000 nM
T19 construct: purchased DiscoverX; host or cells: E. coli (BL21-derived, T7 phage display) or HEK-293
How it was run: as §1

[20] = tested on: HeLa cells engineered to inducibly express wild-type KRAS; assay: Wild-type versus KRAS HeLa cell viability (Cell Titre Blue); assay type: cell-based; conditions: Homo sapiens, wild-type KRAS transgene, 72 hours, read-out: WT GI50
Description: Thus, atropisomer A-2 was tested on HeLa cells engineered to inducibly express wild-type or oncogenic […] transgenes using the FLP-in/T-Rex system (Invitrogen). Cells were plated, and then treated with or without doxycycline to induce transgene expression, and then treated with serially-diluted atropisomer A-2. After 72 hours of incubation, cell viability was assessed using the Cell Titre Blue reagent (Promega) and a BMG Pherastar plate reader. The effect of PBD inhibition on cell viability with either wild-type or oncogenic G12V KRAS was assessed using GraphPad Prism.

% Ctrl @ 3 μM [1]: 100 % Ctrl
% Ctrl @ 3 μM [2]: 100 % Ctrl
% Ctrl @ 3 μM [3]: 100 % Ctrl
% Ctrl @ 3 μM [4]: 99 % Ctrl
% Ctrl @ 3 μM [5]: 91 % Ctrl
% Ctrl @ 3 μM [6]: 94 % Ctrl
% Ctrl @ 3 μM [7]: 99 % Ctrl
% Ctrl @ 3 μM [8]: 100 % Ctrl
% Ctrl @ 3 μM [9]: 81 % Ctrl
% Ctrl @ 3 μM [10]: 63 % Ctrl
% Ctrl @ 3 μM [11]: 96 % Ctrl
% Ctrl @ 3 μM [12]: 99 % Ctrl
% Ctrl @ 3 μM [13]: 94 % Ctrl
% Ctrl @ 3 μM [14]: 100 % Ctrl
% Ctrl @ 3 μM [15]: 71 % Ctrl
% Ctrl @ 3 μM [16]: 99 % Ctrl
% Ctrl @ 3 μM [17]: 88 % Ctrl
% Ctrl @ 3 μM [18]: 96 % Ctrl
% Ctrl @ 3 μM [19]: 92 % Ctrl
GI50 [20]: 3.01 nM
Structure (SMILES): CN(C)CCNC(=O)c1ccc(-c2ccc(-c3ccc(Cl)cc3)n2-c2ccccc2C(F)(F)F)cc1 (single isomer, unassigned) [Atropisomer A-2]
